Data published in patent US20180325947A1, “USE OF MAPK INHIBITORS TO REDUCE LOSS OF HEMATOPOIETIC STEM CELLS DURING EX VIVO CULTURE AND/OR GENETIC MANIPULATION” (Children's Hospital Medical Center, priority 2015, published 2018).

Assays:
[1] = tested on: human HSCs (CD34+ 38- 90+ 45RA- 49f+); assay: percent phenotypic hHSC in ex vivo cultured CD34+ cells, flow cytometry; format: cell-based; settings: for percent hHSCs ex vivo in culture: ex vivo culture up to 72 hours
Procedure: Four different p38 inhibitors all increase the percent hHSCs ex vivo in culture studies up to 72 hours.
(§1) Human CD34^+ cells were cultured and transduced as described in FIG. 13, panel A. Harvested cells were stained with trypan blue for viability, total CD34+ cell number (Panel A), fold change in percent human CD34^+ 38^− 90^+ 45RA^− 49f^+ (HSCs) (Panel B), percent annexin V^+ (apoptotic) CD34^+38^− 90^+ cells (Panel C), fold change in transduction efficiency (based on GFP marker percentage) over non-treated CD34^+38^− 90^+ cells (Panel D), fold change in MitoSOX MFI in CD34^+38^− 90^+ cells are shown (Panel E). Data represents mean±SEM. Statistics: Student's t test, […], *p<0.05, **p<0.01, ***p<0.001.

[2] = tested on: human CD45+ cell engraftment in NSG mice; assay: primary transplant (1T) of cultured hCD34+ cells into NSG mice, hCD45+ engraftment in bone marrow; format: in vivo; settings: for hCD45+ cell engraftment in bone marrow of 1T mice: 24 weeks after primary transplant of cultured hCD34+ cells with/without inhibitor
Procedure: FIG. 2. A preclinical model for studying adult human HSC ex vivo manipulation and gene transfer and its effect on LTRP. (Panel A) Freshly isolated or thawed mobilized peripheral blood (MPB) derived CD34+ cells were utilized for the study. Two different protocols were utilized for the study where lentivirus (LV) or γ-Retrovirus (RV) mediated gene transfer was performed at indicated time points. 0 h, 18-24 h, 36-42 h, and 72-96 h indicates the total amount of time where cells were exposed in the ex vivo culture after CD34 isolation before injection into NSG mice. (Panel B) After indicated time in culture and transduction, 1 million CD34+ starting equivalent cells were transplanted per NSG mouse after TBI intravenously (primary transplant=1T). Primary human engraftment and multi-lineage reconstitution was analyzed in mice at indicated time periods after bone marrow harvest at 6 and 12 weeks (wks) from left and right femurs, and after sacrifice at 24 wks, from all bones. A portion of cells were analyzed for FACS and the rest were depleted of mouse CD45+ cells and transplanted one to one, into secondary mice (secondary transplant=2T).
Panel A: hCD45^+ cell engraftment in bone marrow of 1T mice at 24 weeks following transplant of cultured hCD34^+ cells with/without p38 inhibitor Birb796. Panel B: Number of 2T mice engrafted (>0.01% hCD45^+ cells in BM) are shown above the middle bar and those non-engrafted below.
A xenograft model was developed to study hHSC engraftment. In the xenograft model of adult human HSC, CD34^+ cells were derived and isolated from fresh MPB. The fresh CD34^+ cells were either directly transplanted into immunocompromised NSG mice or cultured with human cytokines and then transduced either with lentivirus or retrovirus. […] The multipotential human hematopoietic progeny (hCD45^+) following huCD34^+ transplant in NSG mice were then measured to confirm that the model human HSC engraftment from adult (mobilized peripheral blood) CD34^+ HSC/P that mimics the results observed in gene therapy clinical trials. […]

human CD34+ cells = assay: total CD34+ cell number / viability, trypan blue; format: cell-based; settings: with or without p38i
Procedure: as §1

human CD34+38-90+ cells = assay: apoptosis, annexin V+ CD34+38-90+ cells; format: cell-based; settings: with or without p38i
Procedure: as §1

Cc1ccc(-n2nc(C(C)(C)C)cc2NC(=O)Nc2ccc(OCCN3CCOCC3)c3ccccc23)cc1 [BIRB-796, 1-[5-tert-butyl-2-(4-methylphenyl)pyrazol-3-yl]-3-[4-(2-morpholin-4-ylethoxy)naphthalen-1-yl]urea]
human HSCs in vitro ([1]; at 400, 600 and 800 nm concentrations): appeared to increase | percent hHSCs ex vivo in culture [1]: significant increase | percent hHSCs ex vivo in culture ([1]; listed as p38i): increased | loss of stem cells during in vitro or ex vivo culture ([1]; stem cells having undergone genetic manipulation that induces a DNA double strand break): successfully reduced | human CD45+ cell engraftment in NSG BM, 1T ([2]; 24 weeks after 1T, 72-96 h LV and RV groups): slightly improved | hCD45+ cell engraftment in bone marrow of 1T mice [2]: not affecting | hCD45+ cell engraftment in bone marrow of 1T mice ([2]; listed as Birb796): significantly increases | total number of CD34+ cells or their viability (human CD34+ cells): no significant change | apoptosis in CD34+38-90+ population (human CD34+38-90+ cells): no difference
